Settings: Liquid, Vibrating tube method

CCCC[n+]1cccc(C)c1.F[B-](F)(F)F [1-butyl-3-methylpyridinium tetrafluoroborate]
Settings | mass density [kg/m3]
283.12 K, 2024 kPa | 1194.21
283.13 K, 5410 kPa | 1195.69
283.14 K, 10608 kPa | 1197.94
283.16 K, 101 kPa | 1192.91
283.16 K, 20395 kPa | 1202.09
283.16 K, 29989 kPa | 1206.06
283.16 K, 40399 kPa | 1210.24
283.16 K, 50021 kPa | 1214
283.16 K, 59880 kPa | 1217.75
283.16 K, 70001 kPa | 1221.48
283.16 K, 80055 kPa | 1225.07
283.16 K, 89979 kPa | 1228.5
283.16 K, 99226 kPa | 1231.6
293.13 K, 2373 kPa | 1187.65
293.15 K, 101 kPa | 1185.85
293.15 K, 5192 kPa | 1188.92
293.15 K, 19915 kPa | 1195.44
293.15 K, 29975 kPa | 1199.74
293.15 K, 40033 kPa | 1203.9
293.15 K, 49990 kPa | 1207.91
293.15 K, 60026 kPa | 1211.82
293.15 K, 69993 kPa | 1215.58
293.15 K, 90002 kPa | 1222.75
293.15 K, 99008 kPa | 1225.82
293.16 K, 79917 kPa | 1219.2
293.17 K, 10105 kPa | 1191.13
298.13 K, 101 kPa | 1182.41
298.15 K, 1023 kPa | 1183.65
298.15 K, 5014 kPa | 1185.49
298.15 K, 10024 kPa | 1187.78
298.15 K, 19956 kPa | 1192.22
298.15 K, 29784 kPa | 1196.48
298.15 K, 39954 kPa | 1200.76
298.15 K, 49921 kPa | 1204.82
298.15 K, 59784 kPa | 1208.71
298.15 K, 69521 kPa | 1212.43
298.15 K, 79326 kPa | 1216.05
298.15 K, 89784 kPa | 1219.77
298.15 K, 99965 kPa | 1223.26
313.13 K, 101 kPa | 1172.19
313.13 K, 10051 kPa | 1177.79
313.15 K, 2471 kPa | 1174.15
313.15 K, 5142 kPa | 1175.44
313.15 K, 39901 kPa | 1191.32
313.15 K, 50020 kPa | 1195.6
313.15 K, 59990 kPa | 1199.68
313.15 K, 70046 kPa | 1203.63
313.15 K, 79830 kPa | 1207.34
313.16 K, 30021 kPa | 1186.99
313.16 K, 89989 kPa | 1211.04
313.17 K, 19949 kPa | 1182.42
313.17 K, 99194 kPa | 1214.26
323.14 K, 101 kPa | 1165.48
333.13 K, 2503 kPa | 1160.47
333.14 K, 101 kPa | 1158.81
333.14 K, 39760 kPa | 1178.53
333.15 K, 20056 kPa | 1169.28
333.15 K, 29979 kPa | 1174.02
333.15 K, 79731 kPa | 1195.25
333.15 K, 89986 kPa | 1199.09
333.15 K, 99773 kPa | 1202.59
333.16 K, 5448 kPa | 1161.99
333.16 K, 50021 kPa | 1183.09
333.16 K, 70003 kPa | 1191.43
333.17 K, 10715 kPa | 1164.66
333.17 K, 60243 kPa | 1187.44
343.14 K, 101 kPa | 1152.1
353.12 K, 6509 kPa | 1148.81
353.13 K, 8955 kPa | 1150.12
353.14 K, 2790 kPa | 1146.79
353.15 K, 101 kPa | 1145.3
353.15 K, 90011 kPa | 1186.9
353.15 K, 99259 kPa | 1190.28
353.16 K, 29979 kPa | 1160.91
353.16 K, 39909 kPa | 1165.7
353.16 K, 50013 kPa | 1170.38
353.16 K, 60153 kPa | 1174.86
353.16 K, 69979 kPa | 1179.02
353.16 K, 80426 kPa | 1183.23
353.17 K, 21342 kPa | 1156.58
363.14 K, 101 kPa | 1138.4
373.12 K, 60192 kPa | 1162.13
373.13 K, 50003 kPa | 1157.47
373.14 K, 39996 kPa | 1152.66
373.14 K, 70039 kPa | 1166.42
373.14 K, 99035 kPa | 1177.8
373.15 K, 5373 kPa | 1134.29
373.15 K, 29979 kPa | 1147.62
373.15 K, 90014 kPa | 1174.46
373.16 K, 2495 kPa | 1132.64
373.16 K, 10198 kPa | 1137.01
373.16 K, 20336 kPa | 1142.55
373.16 K, 80221 kPa | 1170.63
393.15 K, 10222 kPa | 1123.08
393.15 K, 20024 kPa | 1128.69
393.15 K, 30013 kPa | 1134.16
393.15 K, 89993 kPa | 1161.76
393.15 K, 99831 kPa | 1165.43
393.16 K, 40133 kPa | 1139.44
393.16 K, 49970 kPa | 1144.34
393.16 K, 60110 kPa | 1149.13
393.16 K, 70029 kPa | 1153.57
393.16 K, 80159 kPa | 1157.85
393.17 K, 2485 kPa | 1118.49
393.17 K, 5300 kPa | 1120.18

From the NIST ThermoML archive (doi:10.1016/j.jct.2011.03.019)
